pEC50: −log10 of the molar value.
What was measured:
Assay type in all cases: functional, cell-based
[1] = target: Cannabinoid receptor 1 (Rattus norvegicus) (UniProt P20272); assay: Agonist activity at rat CB1 receptor stably expressed in HEK293 cells assessed as inhibition of forskolin-stimulated cAMP accumulation incubated for 5 mins by Lance Ultra cAMP assay relative to control; settings: filed as agonist
[2] = target: Cannabinoid receptor 2 (Mus musculus, UniProt P47936); assay: Agonist activity at mouse CB2 receptor stably expressed in HEK293 cells assessed as inhibition of forskolin-stimulated cAMP accumulation incubated for 5 mins by Lance Ultra cAMP assay
[3] = target: Cannabinoid receptor 2 (Mus musculus) (UniProt P47936); assay: Agonist activity at mouse CB2 receptor stably expressed in HEK293 cells assessed as inhibition of forskolin-stimulated cAMP accumulation incubated for 5 mins by Lance Ultra cAMP assay relative to control
[4] = target: Cannabinoid receptor 1 (Rattus norvegicus, UniProt P20272); assay: Agonist activity at rat CB1 receptor stably expressed in HEK293 cells assessed as inhibition of forskolin-stimulated cAMP accumulation incubated for 5 mins by Lance Ultra cAMP assay
Chain of Cannabinoid receptor 1 (P20272 whole entry): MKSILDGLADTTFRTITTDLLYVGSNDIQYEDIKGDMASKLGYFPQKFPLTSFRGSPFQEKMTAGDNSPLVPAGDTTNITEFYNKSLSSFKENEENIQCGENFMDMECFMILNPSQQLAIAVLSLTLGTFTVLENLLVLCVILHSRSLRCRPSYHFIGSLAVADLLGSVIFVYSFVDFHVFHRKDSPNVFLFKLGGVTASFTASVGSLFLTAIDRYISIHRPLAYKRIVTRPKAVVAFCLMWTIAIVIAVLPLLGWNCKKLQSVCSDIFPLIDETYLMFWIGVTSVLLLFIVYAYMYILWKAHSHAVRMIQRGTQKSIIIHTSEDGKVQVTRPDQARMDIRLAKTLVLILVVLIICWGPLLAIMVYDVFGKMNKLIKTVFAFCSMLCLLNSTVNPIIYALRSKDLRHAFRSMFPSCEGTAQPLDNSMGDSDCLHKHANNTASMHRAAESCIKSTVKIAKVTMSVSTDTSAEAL

Chain of Cannabinoid receptor 2 (Mus musculus) (P47936 whole entry): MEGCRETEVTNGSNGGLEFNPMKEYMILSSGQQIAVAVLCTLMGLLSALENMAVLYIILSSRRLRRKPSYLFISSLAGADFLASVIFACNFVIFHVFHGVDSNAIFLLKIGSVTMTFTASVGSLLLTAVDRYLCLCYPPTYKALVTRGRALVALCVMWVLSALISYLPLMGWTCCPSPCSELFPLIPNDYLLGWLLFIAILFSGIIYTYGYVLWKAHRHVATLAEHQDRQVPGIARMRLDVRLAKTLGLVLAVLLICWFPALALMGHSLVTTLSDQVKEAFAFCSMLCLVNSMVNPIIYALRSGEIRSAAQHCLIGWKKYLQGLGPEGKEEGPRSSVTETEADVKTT
Chain of Cannabinoid receptor 2 (P47936 whole entry): as above
Chain of Cannabinoid receptor 1 (Rattus norvegicus) (P20272 whole entry): as the sequence (P20272 whole entry) above

SMILES | Emax [1] | pEC50 [2] | Emax ([3]; filed as agonist) | Emax [3] | pEC50 [4]
CCCCCCC(C)(C)c1ccc([C@@H]2C[C@H](O)CC[C@H]2CCCO)c(O)c1 [CP-55940] | 67.1% | 8.15 | 54.4% | – | –
CCCCC/C=C\C/C=C\C/C=C\C/C=C\CCCC(=O)OC(CO)CO [2-ARACHIDONOYLGLYCEROL] | 47.7% | 7.74 | – | 35.2% | –
CCCCC/C=C\C/C=C\C/C=C\[C@H](C)/C=C\CCCC(=O)OC(CO)CO | 48.7% | 8.22 | – | 24.6% | 7.64
CCCCC/C=C\C/C=C\C/C=C\[C@@H](C)/C=C\CCCC(=O)OC(CO)CO | 74.8% | – | – | < 1% | 7.46
CCCCC/C=C\[C@H](C)/C=C\C/C=C\C/C=C\CCCC(=O)OC(CO)CO | 51.2% | 7.28 | 50.1% | – | 7.77
CCCCC/C=C\[C@@H](C)/C=C\C/C=C\C/C=C\CCCC(=O)OC(CO)CO | 51.6% | 7.30 | 42.8% | – | 8.15

From ChEMBL document CHEMBL5532738, “Chiral Me-2-arachidonoyl Glycerols: The First Potent Endocannabinoid Glyceride Templates with Stability to COX-2” (ACS Med Chem Lett, 2024)
